Our source for the IC50 and CC50 values is patent US20090111781A1, “Use of Cymipristone Type Compounds in Aids Treatment” (SHANGHAI THREE-ALLIANCE BIOTECHNOLOGIES CO., LTD., priority 2005, published 2009).

≈ marks a conversion by molar mass, not a printed value.

In data set [1] the target is T1, progestogen receptor (PRa) (Homo sapiens, UniProt P06401).
T1 sequence (P06401 1-769 isoform P06401-2): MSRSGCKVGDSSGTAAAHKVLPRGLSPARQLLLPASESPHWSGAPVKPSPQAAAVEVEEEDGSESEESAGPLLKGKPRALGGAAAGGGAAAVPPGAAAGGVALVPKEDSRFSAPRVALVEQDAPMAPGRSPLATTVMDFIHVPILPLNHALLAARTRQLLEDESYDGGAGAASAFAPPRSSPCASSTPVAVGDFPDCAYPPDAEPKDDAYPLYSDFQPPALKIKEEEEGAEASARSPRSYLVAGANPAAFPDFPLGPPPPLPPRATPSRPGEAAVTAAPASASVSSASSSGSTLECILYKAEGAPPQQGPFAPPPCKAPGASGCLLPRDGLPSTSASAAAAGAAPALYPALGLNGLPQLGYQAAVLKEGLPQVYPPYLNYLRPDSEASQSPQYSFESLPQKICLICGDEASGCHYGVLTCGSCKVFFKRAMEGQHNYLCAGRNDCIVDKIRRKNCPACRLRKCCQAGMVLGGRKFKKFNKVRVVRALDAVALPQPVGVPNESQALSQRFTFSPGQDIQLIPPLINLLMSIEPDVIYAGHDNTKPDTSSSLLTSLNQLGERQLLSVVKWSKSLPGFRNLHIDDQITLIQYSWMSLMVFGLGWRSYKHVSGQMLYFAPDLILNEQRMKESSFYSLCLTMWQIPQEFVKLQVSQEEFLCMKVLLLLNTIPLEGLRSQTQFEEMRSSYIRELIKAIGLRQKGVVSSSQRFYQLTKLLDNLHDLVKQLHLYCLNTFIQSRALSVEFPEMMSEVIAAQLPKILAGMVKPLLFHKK
Kind of data set: Binding activity on human nuclear receptor PR. To be noted: mean ± SD, n = 4. On the procedure: (§1) Buffer solution is composed of 25 mM NaPO4, 20 mM NaMoO4, 10 mM KF and 10% glycerol (pH=7.3) and stored under 4° C. Stock solution is prepared with CHAPS and DTT and stored under −20° C. […] Add 2.5 μl/hole into 96-pore plate. Take out appropriate amount of buffer solution reserve into solution to make the final concentration of CHAPS and DDT to become 0.25 mM and 2 mM respectively. Add protease inhibitors (aprotinin and leupeptin) to make its final concentration to become 1 μg/μl, and place in an ice bath. After adding human nuclear receptor GR (1:8), PR (1:100), ER (1:2000), AR (1:200) and MR (1:40) into the reaction system respectively, adequately mix suitable quantity of [^3H]-dexamethasone, [^3H]-progesterone, [^3H]-estradiol and [^3H]-DHT (from Amersham), rapidly add into 96-pore plate (100 μl/pore) and incubate overnight under 4° C. On the next day, add 25 μl of hydroxyapatite suspension into each pore and mix with shaking. After incubating for 10 min, separate by centrifuge for 3 min at 2500 rpm. The precipitate is washed with 100 μl of buffer solution and separated by centrifuge twice. Add 150 μl of scintillation solution (from Perkin Elmer) into each pore, mix with shaking and count by MicroBeta counter.

Another data set has as its target T2, androgen receptor (AR) (Homo sapiens, UniProt P10275).
T2 sequence (P10275 1-920): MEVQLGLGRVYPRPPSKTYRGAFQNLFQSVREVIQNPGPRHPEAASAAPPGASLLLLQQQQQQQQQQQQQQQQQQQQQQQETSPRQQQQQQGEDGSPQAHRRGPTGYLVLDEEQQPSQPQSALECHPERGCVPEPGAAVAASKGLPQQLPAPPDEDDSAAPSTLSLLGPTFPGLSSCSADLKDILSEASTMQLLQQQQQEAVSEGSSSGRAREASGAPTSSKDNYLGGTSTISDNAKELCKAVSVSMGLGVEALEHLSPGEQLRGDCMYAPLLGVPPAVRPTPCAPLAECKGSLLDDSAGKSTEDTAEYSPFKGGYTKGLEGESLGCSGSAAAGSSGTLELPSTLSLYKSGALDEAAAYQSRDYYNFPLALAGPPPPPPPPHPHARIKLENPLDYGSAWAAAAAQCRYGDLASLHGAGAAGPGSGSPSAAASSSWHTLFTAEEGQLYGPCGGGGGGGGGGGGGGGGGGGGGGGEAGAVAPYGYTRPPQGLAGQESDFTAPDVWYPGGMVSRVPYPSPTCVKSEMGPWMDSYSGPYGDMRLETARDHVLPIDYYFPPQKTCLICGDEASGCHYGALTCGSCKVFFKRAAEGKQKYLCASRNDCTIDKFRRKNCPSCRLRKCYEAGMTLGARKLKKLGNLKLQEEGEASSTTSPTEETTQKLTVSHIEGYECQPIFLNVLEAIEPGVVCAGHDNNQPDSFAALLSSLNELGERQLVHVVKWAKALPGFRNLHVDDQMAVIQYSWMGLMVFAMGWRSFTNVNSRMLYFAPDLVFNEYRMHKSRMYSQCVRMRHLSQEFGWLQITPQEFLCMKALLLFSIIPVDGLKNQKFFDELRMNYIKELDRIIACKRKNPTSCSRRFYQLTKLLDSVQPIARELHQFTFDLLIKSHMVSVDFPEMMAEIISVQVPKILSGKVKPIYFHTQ
Kind of data set: Binding activity on human nuclear receptor AR. To be noted: mean ± SD, n = 4. On the procedure:
as §1

Data set [2] can be described thus: MTT toxicity on PBMC infected by HIV-1 AZT-resistant strain 018c. To be noted: human. On the procedure:
Collect cells with curette, infect cells with 10^−2 AZT sensitive (018a) or AZT resistant (018c) virus strain liquid, and adsorb for 2 hours, Wash off unabsorbed virus with 1640 culture medium without serum, prepare cells infected by virus to 1×10^6/ml with culture solution, and inoculate on 96-pore culture plate, 100 μl/pore. […] Set cell control group and virus infected cell control group. Incubate under 37° C. and 5% CO2. On the fourth day (96 hours), pipette out the supernatant liquid and store under −20° C. for determination of HIV-1 P24 antigen titer and calculation of drug inhibitory action. Add MTT staining to cells for determination of cytotoxicity. Determination of cytotoxicity by MTT staining: Add 10 μl of 5 mg/ml MTT stain into each pore, continue to incubate under 37° C., 5% CO2 and saturated humidity for 4 hours. […] Determine the HIV-1 P24 antigen titer according to the operation procedure provided by the HIV-1 P24 antigen reagent kit. Compare the drug-added group with virus control group. […] Calculation method of 50% toxic concentration (CC50), 50% effective concentration (EC50) and selection index (SI): […]

`CC#C[C@]1(O)CC[C@H]2[C@@H]3CCC4=CC(=O)CCC4=C3[C@@H](c3ccc(N(C)C4CCCCC4)cc3)C[C@@]21C` [Cymipristone, 11β-[4-(N-methyl-N-cyclohexylamino)phenyl]-17α-(1-propynyl)-17β-hydroxyl-4,9-estradiene-3-one]: the IC50 in data set [1] was 0.0052 ± 0.00026 µM; on androgen receptor (AR), 0.0696 ± 0.0154 µM. For the same compound, the CC50 at 96 h in data set [2] (50% toxic concentration CC50, Experiment 1) is 103 mg/L (≈ 207 µM); in data set [2] (50% toxic concentration CC50, Experiment 2), 104 mg/L (≈ 210 µM).
